Test results from US20150267174A1, “REPROGRAMMING PEPTIDE AND USE THEREOF” (priority 2012, published 2015).
Square brackets hold non-standard residues; d marks the D form. Cysamide = C-terminal cysteamide

Tests used:
Format in all cases: cell-based
[1] = tested on: Human adult fibroblast strain TIG113; test: Spheroid formation after reverse transfection of peptide into fibroblasts; settings: for spheroid formation ability (in words): reverse transfection, TIG113; for degree of spheroid formation: number of ES cell colony-like spheroids, peptide 30 μg/well solid-phased on 12 well plate, 2×10^4 cells seeded, measured 7-10 days later
Description: Human adult fibroblast strain TIG113 was cultured in a medium mainly containing 10% fetal bovine serum-containing EMEM under humidified conditions at 37° C. and 5% CO2 until it reached 1×10^7 cells. A plate for reverse transfection was prepared by applying each peptide shown in Table 1 to each well of a 12 well plate at a concentration of 30 μg/well, and forming a solid phase by air-drying. Grown TIG113 was washed with CMF-PBS, and incubated in 0.25% trypsin solution at 37° C. for 10-15 min to dissociate the cells. Centrifugation and washing with PBS were repeated twice and the cells were suspended in iPS medium (manufactured by ReproCELL Incorporated). Using the cell suspension, human fibroblast was seeded at 2×10^4 cells on a plate for reverse transfection. As a reverse transfection medium, an iPS medium containing 10% fetal bovine serum and not containing bFGF was used. The number of ES colony-like spheroids formed was measured 7-10 days later, and the spheroid formation degree was evaluated (Table 1). In an experiment using the peptides of H11, H16, and H29, the ratio of the cells forming spheroid was calculated.

[2] = tested on: Human adult fibroblast strain TIG113; test: Marker expression (immunostaining, alkaline phosphatase staining) of spheroid cells
Description: The pluripotent spheroid cell obtained in Example 1, by introducing a reprogramming peptide into differentiated cell, was examined for undifferentiation, expression of nerve marker and the like.
Using the H11 peptide shown in Table 1, the cells were made to form spheroid according to the method shown in Example 1, and incubated in 1% H2O2 containingmethanol at room temperature for 5 min to immobilize the cells. The cells were washed five times with PBS, and blocked with PBS containing 5% FBS/0.05% gelatin/3% skim milk/1% BSA (hereinafter Block Ace) at room temperature for 1-2 hr. Furthermore, the cells were reacted at room temperature for 2 hr with the primary antibody shown in Table 2 and appropriately diluted with Block Ace. The cells were washed five times with PBS, and the HPR-labeled secondary antibody was appropriately diluted with Block Ace and reacted at room temperature for 1 hr. Lastly, the cells were washed five times with PBS, and the antigen was visualized according to the protocol of Peroxidase Stain DAB Kit &enhancer (Nacalai Tesque).
For alkaline phosphatase staining, the cells immobilized by the aforementioned method were incubated at room temperature for 30 min using BCIP/NBT Color Development Substrate (Promega). The reaction was quenched by washing five times with PBS.

[3] = tested on: human fibroblast (manufactured by KURABO INDUSTRIES LTD.); test: Spheroid formation and marker expression using human adult fibroblast
Text: Using a method similar to that of Example 1, H11 peptide was introduced into human fibroblast (manufactured by KURABO INDUSTRIES LTD.).
The prepared spheroid was subjected to expression analysis of pluripotency marker and differentiation marker according to the method of Example 2. As a result, it was positive to pluripotency markers of alkaline phosphatase, SSEA-3, TRA-1-61, Oct3/4, Sox2, and Nanog. Furthermore, the expression of neural stem cell marker nestin, nerve marker neurofilament 160, βIII tubulin, MAP2, and GFAP was confirmed by continuous culture. Furthermore, the expression of insulin producing cell marker proinsulin, and C-peptide was also confirmed.

A549 = test: Spheroid formation and marker staining in various cells
Text: (§1) By a method similar to that of Example 1, H11 peptide was introduced into BHK21, A549, H293 cell, mouse feeder cell (COSMO BIO co., ltd.: RCHEFC003), bovine vascular endothelial cell (TOYOBO CO., LTD.: CAB300K05), and swine vascular endothelial cell (TOYOBO CO., LTD.: CAP300K05).

BHK21 = test: as above
Text: as §1

H293 cell = test: as above
Text: as §1

[4] = tested on: bovine vascular endothelial cell; test: as above
Text: as §1

mouse feeder cell = test: as above
Text: as §1

[5] = tested on: swine vascular endothelial cell; test: as above
Text: as §1

[6] = tested on: Human adult fibroblast strain TIG113; test: CD105/CD146/CD31 antibody staining of spheroid cells
Description: The pluripotent spheroid cell obtained in Example 1 by introducing a reprogramming peptide into a differentiated cell was examined for undifferentiation, and expressions of nerve marker and the like.
Using the H11 peptide shown in Table 1, the cells were made to form spheroid according to the method shown in Example 1 and incubated using 1% H2O2-containing methanol at room temperature for 5 min, and immobilized.
Using the antibody described in Table 3, cells were stained according to a package insert. As the secondary antibody, HRP-labeled goat anti-mouse IgG antibody (manufactured by Promega KK, Goat Anti-Mouse IgG (H+L), HRP Conjugate) was used.

For Ac-GALFLGFLGAAGSTMGA-Cysamide [H13], the “spheroid formation ability (in words)” value [1] was “no spheroid formation ability”.

For “Ac-GALFLGFLGAAGSTMGA/WSQ/KKRTLRKNDRKKR-Cysamide (Ac-GALFLGFLGAAGSTMGAWSQKKRTLRKNDRKKR-Cysamide) [H36]”, the “degree of spheroid formation” value [1] was “+++ (+++ about 50-100)”.

With “Ac-GALFLGFLGAAGSTMGA/WSQ/RSRKYTSWYVALKR-Cysamide (Ac-GALFLGFLGAAGSTMGAWSQRSRKYTSWYVALKR-Cysamide) [H37]” the “degree of spheroid formation” value [1] was “+++ (+++ about 50-100)”.

“Ac-GALFLGFLGAAGSTMGAWSQGKKRSKA-Cysamide [H29]” was tested, and the “degree of spheroid formation” value [1] was “+++ (+++ about 50-100)” and the “spheroid formation ability (in words)” value [1] was “has spheroid formation ability”.

“Ac-GALFLGFLGAAGSTMGAWSQPKKKRKV-Cysamide [H11]” was tested, and the “degree of spheroid formation” value [1] was “+++ (+++ about 50-100)”, the “expression of pluripotent markers alkaline phosphatase, Oct3/4, Sox2, Nanog, SSEA-3, Tra-1-81” value ([2]; spheroid cells from TIG113) was “express” and the “expression of proinsulin and C-peptide (insulin producing cell markers)” value ([2]; spheroid cells from TIG113) was “confirmed”. The “expression of nestin, neurofilament 160, βIII tubulin, MAP2, GFAP” value ([2]; when the culture period becomes long) was “confirmed”, the “expression of alpha-fetoprotein and albumin” value [3] was “confirmed” and the “expression of proinsulin and C-peptide” value [3] was “confirmed”. For the same substance, the “oil red O staining” value [3] was “differentiation into adipose tissue was found”, the “expression of nestin, neurofilament 160, βIII tubulin, MAP2, GFAP” value ([3]; continuous culture) was “confirmed” and the spheroid formation ([3]; human fibroblast (KURABO)) was “finally formed spheroid”. The “pluripotency markers alkaline phosphatase, SSEA-3, TRA-1-61, Oct3/4, Sox2, Nanog” value ([3]; prepared spheroid) was “positive”, the “alkaline phosphatase, SSEA-3 staining” value (A549) was “positive” and the spheroid formation (A549) was “formed spheroids”. For the same substance, the “alkaline phosphatase, SSEA-3 staining” value (BHK21) was “positive”, the spheroid formation (BHK21) was “formed spheroids” and the “alkaline phosphatase, SSEA-3 staining” value (H293 cell) was “positive”. The spheroid formation (H293 cell) was “formed spheroids”, the “alkaline phosphatase, SSEA-3 staining” value [4] was “positive” and the spheroid formation [4] was “formed spheroids”. For the same substance, the “alkaline phosphatase, SSEA-3 staining” value (mouse feeder cell) was “positive”, the spheroid formation (mouse feeder cell) was “formed spheroids” and the “alkaline phosphatase, SSEA-3 staining” value [5] was “positive”. For the same substance, the spheroid formation [5] was “formed spheroids”, the “mesenchymal stem cell marker CD105” value [6] was “positive” and the “pericyte marker CD146” value [6] was “positive”. For the same substance, the “vascular endothelial cell marker CD31” value [6] was “negative”.

In the case of “Ac-GALFLGFLGAAGSTMGAWSQPKSKRKV-Cysamide [H6]”, the “degree of spheroid formation” value [1] is reported as “+ (+ about −10)”.

“Ac-GALFLGFLGAAGSTMGAmSQPKSKRKV-Cysamide (Ac-GALFLGFLGAAGSTMGA[dM]SQPKSKRKV-Cysamide) [H10]” was tested, and the “degree of spheroid formation” value [1] was “+ (+ about −10)”.

“Ac-PKKKRKV-Cysamide [H18, SV40 Large T antigen NLS]” was tested, and the “spheroid formation ability (in words)” value [1] was “Spheroid is not formed”.

For “Ac-RQIKIWFQNRRMKWKKWSQGKKRSKA-Cysamide [H31]”, the “degree of spheroid formation” value [1] was “+ (+ about −10)”.

“GALFLGFLGAAGSTMGAWSQPKSKRKV (Reprogramming peptide) [H1]” was tested, and the “degree of spheroid formation” value [1] was “++ (++ about 10-50)”.

With “GALFLGFLGAAGSTMGAmSQPKSKRKV (GALFLGFLGAAGSTMGAMSQPKSKRKV; not fully specified; D-Met; Reprogramming peptide) [H5]” the “degree of spheroid formation” value [1] was “+ (+ about −10)”.
